# Measured values reported in patent US6825185B2, “Substituted aryl compounds as novel cyclooxygenase-2 selective inhibitors, compositions and methods of use” (NitroMed, Inc., priority 2000, dated 2004).
# What was measured:
# [1] = target: T1, COX-1 (Homo sapiens, UniProt P23219); assay: Human COX-1 enzyme activity (COX Inhibitor Screening Assay, prostaglandin EIA); assay type: biochemical; set-up: purchased Cayman Chemical; settings: test compound at 100 μM
# Experimental: (§1) The human COX-1 and COX-2 enzyme activities and the measurement of the prostaglandin products synthesized were performed using the COX Inhibitor Screening Assay (Cayman Chemical, Ann Arbor, Mich.), which also contained the Prostaglandin Screening EIA Kit, used for prostaglandin quantification). The test compounds were dissolved at 50 times the highest final reaction concentration in DMSO or any other suitable solvent as stock solutions. These stock solutions were then diluted in the same solvent. Eight glass test tubes (13×100 mm) were placed in a 25° C. water bath. To each test tube was added 950 μL of reaction buffer (0.1 M Tris-HCl, pH 8.0, containing 5 mM EDTA, and 2 mM phenol), 10 μL of 100 µM heme solution, and 10 μL (5 units) of either human COX-1 or COX-2 enzyme and the resulting mixture was incubated for 2 minutes. Twenty μL of the solvent was added to one tube (100% initial activity or solvent control) and 20 μL of each dilution of the test compound was added to one tube each. Each tube was vortexed immediately after the addition. The enzyme was incubated with the inhibitor for 20 minutes at 25° C. The enzymatic reaction was then initiated by the addition of 10 μL of freshly prepared 10 mM arachidonic acid (neutralized with KOH), vortexed and then incubated for 2 minutes (or, in some cases as indicated, 30 seconds) at 37° C. The reaction was terminated by the addition of 50 μL of 1 M HCl, vortexed and placed at room temperature. One hundred μL of a saturated stannous chloride solution (50 mg/mL of 0.1 M HCl) was added and the reaction mixture was allowed to stand at room temperature for at least 5 minutes.
# (§2) The prostaglandins (PG) produced in the reactions were assayed, after a 2,000-fold dilution, using the Prostaglandin Screening EIA Kit (Cayman Chemical, Ann Arbor, Mich.). The assay contains an antibody with broad specificity for all the prostaglandin families (PGF, PGE, PGD, and thromboxane B-type) synthesized in the COX-1/COX-2 reactions. The synthesized prostaglandin competes with a PG-tagged acetylcholine esterase tracer for binding to the PG antibody. Binding of synthesized PG lowers the colorimetric development of the Ellman's Reagent (computed as %B/B0). The actual amount of synthesized PG was interpolated from a standard curve using known amounts of supplied prostaglandin E2 (PGE2) (PGE2 concentration vs. %B/B0). The data generated were the mean±standard deviation of triplicate wells in the EIA for a single reaction at a given inhibitor concentration. A plot of % of control (i.e., the solvent control without inhibitor) vs. test compound inhibitor concentration for both isoenzymes was used to determine the IC50 's for COX-1 and COX-2 for that test compound, when IC50's were calculated. The % inhibition for COX-1 and COX-2 enzyme activity by the test compounds at the indicated concentrations are given in Table 1.
# [2] = target: T1, COX-1; assay: COX-1 enzyme activity in human whole blood (A23187 stimulated, thromboxane B2 EIA); assay type: cell-based; set-up: Human blood (≈50 mL) from male or female donors who had not received any aspirin or NSAIDs for 14 days; endogenous in cells; host or cells: human whole blood from donors; settings: test compound at 100 μM
# Experimental: (§3) The assay for COX-1 and COX-2 enzyme activity, in the human whole blood was performed as described in Brideau et al., Inflamm Res., 45: 68-74 (1996)). Human blood (≈50 mL) from male or female donors who had not received any aspirin or NSAIDs for 14 days was collected at two local area blood donor centers and placed in polypropylene syringes containing sodium heparin (20 units per mL blood, final concentration). The blood was transported to the laboratory on ice packs and used within 1.5 hours of collection. Upon receipt in the laboratory, the blood was allowed to come to room temperature for 15 minutes prior to distribution in 1 mL aliquots per well of 24 well tissue culture plates. The plates were then placed on a gently rotating platform shaker in a 5% CO2 incubator at 37° C. for 15 minutes. Test compounds were dissolved in DMSO, at 1000 fold the final desired concentration, and further diluted, as indicated, in DMSO. One μL of each dilution of the test compound was added per well, in duplicate wells; wells not receiving test compound (e.g., basal, background or control wells) received 1 μL DMSO.
# (§4) To induce COX-2, lipopolysaccharide (LPS) from E. coli (LPS, serotype 026:B6 or serotype 0127:B8, Sigma Chemical Co., St. Louis, Mo., Catalogue No. L3755 or L3129, respectively) was added at 10 μg/mL (2 μL of 5 mg/mL LPS in DMSO) to appropriate wells 15 minutes after the addition of the test compound. (Basal or background wells not incubated with LPS received 2 μL of DMSO.) For the stimulation of COX-1, the calcium ionophore, A23187 (free acid from Sigma Chemical Co., St. Louis, Mo., Catalogue No. C7522) was added at 25 μM (1 μL of 25 mM stock in DMSO) to separate wells 4.5 hours after the addition of the test compound. (Again, basal, background or control wells not stimulated with A23187 received 1 μL of DMSO.) At 5 hours after the addition of the test compound, all incubations were terminated by placement on ice and the addition of 2 mM EGTA (100 μL of 20 mM EGTA, tetrasodium, in PBS (phosphate buffered saline) without Ca^++ and Mg^++, pH 7.2)). The resulting solutions, were transferred by polyethylene transfer pipettes to 15 mL polypropylene centrifuge tubes and centrifuged at 1200 g for 10 minutes at 4° C. One hundred μL of plasma was removed from each blood sample and added to 1 mL of methanol in new 15 mL polypropylene centrifuge tubes, vortexed, and stored overnight at −20° C. The next day, the samples were centrifuged at 2000 g for 10 minutes at 4° C. and the supernatants transferred to glass tubes and evaporated to dryness. The samples were assayed for thromboxane B2 using EIA kits supplied by Cayman Chemical Co. (Ann Arbor, Mich., Catalogue No. 519031) in duplicate wells after reconstitution with EIA Buffer and appropriate dilution (2000 fold for COX-1 and 500 fold for Cox-2 samples).
# [3] = target: T2, COX-2 (Homo sapiens, UniProt P35354); assay: Human COX-2 enzyme activity (COX Inhibitor Screening Assay, prostaglandin EIA); assay type: biochemical; set-up: purchased Cayman Chemical; settings: test compound at 10 μM
# T2 sequence (P35354 18-604): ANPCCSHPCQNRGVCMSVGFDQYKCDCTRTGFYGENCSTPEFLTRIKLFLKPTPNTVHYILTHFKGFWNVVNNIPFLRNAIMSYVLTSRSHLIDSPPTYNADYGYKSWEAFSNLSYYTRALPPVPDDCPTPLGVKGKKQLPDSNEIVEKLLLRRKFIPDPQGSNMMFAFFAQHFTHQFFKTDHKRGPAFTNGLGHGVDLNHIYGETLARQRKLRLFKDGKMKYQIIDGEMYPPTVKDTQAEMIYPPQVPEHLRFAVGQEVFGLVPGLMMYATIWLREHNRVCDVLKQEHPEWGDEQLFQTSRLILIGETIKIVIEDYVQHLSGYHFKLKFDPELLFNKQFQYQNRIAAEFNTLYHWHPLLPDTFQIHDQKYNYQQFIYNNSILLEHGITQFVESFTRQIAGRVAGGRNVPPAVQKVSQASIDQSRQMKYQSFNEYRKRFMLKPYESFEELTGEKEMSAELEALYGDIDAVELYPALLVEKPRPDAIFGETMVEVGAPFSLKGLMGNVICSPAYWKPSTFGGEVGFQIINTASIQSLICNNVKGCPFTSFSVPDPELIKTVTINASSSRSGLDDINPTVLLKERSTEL
# Experimental: as §1
# as §2, with “concentration.” for “concentration. A plot of % of control (i.e., the solvent control without inhibitor) vs. test compound inhibitor concentration for both isoenzymes was used to determine the IC50 's for COX-1 and COX-2 for that test compound, when IC50's were calculated. The % inhibition for COX-1 and COX-2 enzyme activity by the test compounds at the indicated concentrations are given in Table 1.”
# [4] = target: T2, COX-2; assay: COX-2 enzyme activity in human whole blood (LPS induced, thromboxane B2 EIA); assay type: cell-based; set-up: Human blood (≈50 mL) from male or female donors who had not received any aspirin or NSAIDs for 14 days; endogenous in cells; host or cells: human whole blood from donors, LPS-induced; settings: test compound at 10 μM
# Experimental: as §3, with “Human” for “The assay for COX-1 and COX-2 enzyme activity, in the human whole blood was performed as described in Brideau et al., Inflamm Res., 45: 68-74 (1996)). Human”
# as §4, with “(Basal or background wells not incubated with LPS received 2 μL of DMSO.) For the stimulation of COX-1, the calcium ionophore, A23187 (free acid from Sigma Chemical Co., St. Louis, Mo., Catalogue No. C7522) was added at 25 μM (1 μL of 25 mM stock in DMSO) to separate wells 4.5 hours after the addition of the test compound.” left out, “dryness.” for “dryness. The samples were assayed for thromboxane B2 using EIA kits supplied by Cayman Chemical Co. (Ann Arbor, Mich., Catalogue No. 519031) in duplicate wells after reconstitution with EIA Buffer and appropriate dilution (2000 fold for COX-1 and 500 fold for Cox-2 samples).”
# T1 sequence (P23219 24-599): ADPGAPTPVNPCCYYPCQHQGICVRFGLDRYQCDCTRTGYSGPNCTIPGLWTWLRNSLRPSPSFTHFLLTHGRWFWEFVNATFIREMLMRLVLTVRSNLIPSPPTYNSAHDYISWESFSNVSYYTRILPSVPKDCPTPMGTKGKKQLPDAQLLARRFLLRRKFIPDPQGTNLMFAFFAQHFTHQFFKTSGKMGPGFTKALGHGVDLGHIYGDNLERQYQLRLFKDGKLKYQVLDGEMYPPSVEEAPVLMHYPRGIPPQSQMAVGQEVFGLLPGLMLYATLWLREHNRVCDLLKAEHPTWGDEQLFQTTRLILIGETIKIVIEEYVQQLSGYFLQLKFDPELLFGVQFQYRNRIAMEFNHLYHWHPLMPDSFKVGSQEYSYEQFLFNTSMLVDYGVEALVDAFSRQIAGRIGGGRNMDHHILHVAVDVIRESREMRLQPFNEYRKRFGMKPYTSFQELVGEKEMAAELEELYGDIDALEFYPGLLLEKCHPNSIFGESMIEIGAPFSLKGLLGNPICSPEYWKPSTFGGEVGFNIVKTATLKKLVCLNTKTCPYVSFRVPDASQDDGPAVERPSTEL
SMILES,COX-1 Inhibition (% at 100 μM) [1] [%],COX-1 Inhibition (% at 100 μM) [2] [%],COX-2 Inhibition (% at 10 μM) [3] [%],inhibition at 100 µM [2] [%],inhibition at 10 µM [4] [%],melting point [°C]
"CS(=O)(=O)c1ccc(-c2cc3c(cc2C=C2CCCCC2)OCO3)cc1 [Example 1d, 1-(6-(Cyclohexylidenemethyl)(2-H-benzo(3,4-d) 1,3-dioxolen-5-yl))-4-(methylsulfonyl)benzene]",5,50,–,–,–,–
"CS(=O)(=O)c1ccc(-c2cc3c(cc2C(=O)c2cccnc2)OCO3)cc1 [Example 6d, 6-(4-(Methylsulfonyl)phenyl)(2H-benzo(d)1,3-dioxolan-5-yl) 3-pyridyl ketone]",20,–,20,–,–,–
"CS(=O)(=O)c1ccc(-c2cc3c(cc2CN2CCCC(CO)C2)OCO3)cc1 (stereo not drawn) [Example 8b, 1-(6-((3-(Hydroxymethyl)piperidyl)methyl)(2H-benzo(3,4-d)1,3-dioxolan-5-yl))-4-(methylsulfonyl)benzene]",0,–,30,–,–,–
"CS(=O)(=O)c1ccc(-c2cc3c(cc2CN2CCCC(CO[N+](=O)[O-])C2)OCO3)cc1 (stereo not drawn) [Example 8c, 4-(Methylsulfonyl)-1-(6-((3-((nitrooxy)methyl)piperidyl)methyl)(2H-benzo(3,4-d) 1,3-dioxolan-5-yl))benzene]",25,–,80,–,–,–
"CS(=O)(=O)c1ccc(-c2cc3c(cc2CC2CCCC2)OCO3)cc1 [Example 10b, 4-(6-(Cyclopenthylmethyl)(2H-benzo(3,4-d)1,3-dioxolan-5-yl))-1-(methylsulfonyl)benzene]",20,–,70,–,–,–
"CS(=O)(=O)c1ccc(-c2cc3c(cc2C=C2CCCCCC2)OCO3)cc1 [Example 11b, 4-(6-(Cycloheptylidenemethyl)(2H-benzo(3,4-d)1,3-dioxolan-5-yl))-1-(methylsulfonyl) benzene]",10,40,–,–,–,–
"CS(=O)(=O)c1ccc(-c2cc3c(cc2Cc2cc(F)cc(F)c2)OCCO3)cc1 [Example 20, 1-(7-((3,5-Difluorophenyl)methyl)(2H, 3H-benzo(3,4-e)1,4-dioxin-6-yl))-4-(methylsulfonyl)benzene]",–,–,–,70,40,160 to 162
